# According to patent US8951529B2, “Methods of using small compounds to enhance myeloid derived suppressor cell function for treating autoimmune diseases” (Icahn School of Medicine at Mount Sinai, priority 2009, dated 2015):
# How the values were obtained:
# [1] = system: CD4+ HA-TCR transgenic splenocytes co-cultured with MDSCs; test: IL-17A production by HA-stimulated splenocytes co-cultured with MDSCs (ELISA); format: cell-based, mouse; conditions: splenocytes:MDSCs 3:1, HA peptide, five days, FIG. 3B
# Method: Because IL-23 (p40/p19) is essential for the Th17 response, the effects of MDSCs, in the presence of GA, SP600125, or both, on IL-17A expression by CD4+ HA-TCR transgenic splenocytes stimulated with HA peptides was determined. Splenocytes from CD4+ HA-TCR transgenic mice were co-cultured with irradiated MDSCs at the ratio of 3:1 in the presence of HA peptide and SP600125, GA, or a combination of both. Five days later, the culture supernatants were collected for the determination of IL-17A concentration by ELISA.
# [2] = system: MDSCs derived from TRIF KO mice; conditions: OVA peptide, CD4 OVA TCR splenocytes, 5 days, FIG. 9D
# Method: TRIF is upstream of IRF-3. MDSCs derived from wild type or TRIF KO mice were cultured in the presence of OVA peptide and CD4 OVA TCR transgenic splenocytes for 5 days. Cells were stained with primary antibody specific for Foxp3, CD4 and CD25 and analyzed by flow cytometry.
# multiple sclerosis = conditions: GA alone, Johnson et al. (1995); cited from earlier work
# [3] = system: TLR 2, 3, and 4 expression in MDSCs; conditions: microarray analysis
# Source text: (§1) Five days later, cells were harvested and stained with anti-CD4-FITC+anti-CD25-APC+anti-Foxp3-PE or isotype controls followed by flow cytometry.
# MLN T cells = test: MLN cell proliferation assay from IBD mice; format: in vivo, mouse; conditions: +PHA, 72 hours, [3H]-thymidine, day 11, DSS-treated mice, FIG. 7
# Method: On day 11 after IBD induction, mice were terminated, and MLN cells were isolated and cultured in the presence or absence of PHA. [3H]-thymidine was pulsed during the last 8 hours of 72-hour culture for the measurement of T cell proliferation.
# To assess the proliferative capability of T cells from treated mice, on day 11 following IBD induction, splenocytes and […] lymph node (MLN) cells from treated mice were stimulated with (+PHA) or without PHA (˜) for 72 hours. [3H]-thymidine was pulsed during the last 8 hours of 72-hour culture. […] The percentage of Treg cells is defined as the percent cells that are stained positive for CD4, CD25, and intracellular Foxp3.
# Gr-1+CD115+ MDSCs = test: Cytokine production by IFN-γ stimulated MDSCs (ELISA); format: cell-based, mouse; conditions: IFN-γ stimulation, 24 hours, FIG. 3A
# Method: Sorted Gr-1+CD115+ MDSCs from tumor-bearing mice were stimulated with IFN-γ in the absence or presence of GA, SP600125, or both. Twenty-four hours after stimulation, culture supernatants were collected and the concentrations of IL-10, TGF-β, IL-6, and IL-23 were determined by ELISA (R&D Systems).
# It was next determined whether GA, SP600125, or both exert an effect on cytokine production by MDSCs. Sorted Gr-1+CD115+ MDSCs from tumor-bearing mice were stimulated with IFN-γ in the absence or presence of GA, SP600125, or both. Twenty-four (24) hours after stimulation, culture supernatants were collected and the concentrations of IL-10, TGF-β, IL-6, and IL-23 were determined by ELISA (R&D Systems®). GA or SP600125 alone was capable of enhancing the secretion of IL-10 and TGF-β while decreasing IL-6 and IL-23 production by MDSCs in vitro (FIG. 3A).
# MDSCs = test: Treg induction by MDSCs with or without LPS; format: cell-based, mouse; conditions: five days, FIG. 9A
# Source text: as §1
# IBD = conditions: GA alone, clinical studies discontinued; cited from earlier work
# CD115+ MDSCs = conditions: FIG. 9B
# Method: IL-10 and IFN-γ levels in the supernatant were measured by ELISA.
substance,measurement,setting,value
"L-glutamic acid polymer with L-alanine, L-lysine and L-tyrosine, acetate (salt) [GA]",IL-17A production,[1],decreased
same,MDSC-mediated Treg cell induction in the absence of TRIF,[2],cannot enhance
same,efficacy for treating multiple sclerosis,multiple sclerosis,only partially effective
same,"levels of TLR 2, 3, and 4 expression in MDSCs",[3],significant reduction
same,T-cell proliferation of MLN cells,MLN T cells,lower level
same,IL-6 production by MDSCs,Gr-1+CD115+ MDSCs,decreasing
same,IL-23 production by MDSCs,Gr-1+CD115+ MDSCs,decreasing
same,secretion of IL-10 by MDSCs,Gr-1+CD115+ MDSCs,enhancing
same,secretion of TGF-β by MDSCs,Gr-1+CD115+ MDSCs,enhancing
same,Treg cell induction by MDSCs without LPS,MDSCs; CD4+ HA TCR splenocytes,11.1%
same,Treg cell induction by MDSCs with LPS,MDSCs; LPS 100 ng/mL,5.31%
same,efficacy for treating IBD,IBD,failed to treat IBD
same,IFN-γ production induced by LPS in MDSCs,"CD115+ MDSCs; 100 ng/mL LPS, 30 hours, ELISA",significantly reduced
same,IL-10 production by MDSCs,CD115+ MDSCs; with LPS,favors IL-10 production
